For orientation: melting point means the temperature of the solid-liquid transition. The bioavailability is the share of a dose that reaches the circulation, judged against a reference dose that is usually intravenous.

The target in data set [1] is T1, human M1 muscarinic receptor (Homo sapiens, UniProt P11229).
T1 sequence (P11229 1-460): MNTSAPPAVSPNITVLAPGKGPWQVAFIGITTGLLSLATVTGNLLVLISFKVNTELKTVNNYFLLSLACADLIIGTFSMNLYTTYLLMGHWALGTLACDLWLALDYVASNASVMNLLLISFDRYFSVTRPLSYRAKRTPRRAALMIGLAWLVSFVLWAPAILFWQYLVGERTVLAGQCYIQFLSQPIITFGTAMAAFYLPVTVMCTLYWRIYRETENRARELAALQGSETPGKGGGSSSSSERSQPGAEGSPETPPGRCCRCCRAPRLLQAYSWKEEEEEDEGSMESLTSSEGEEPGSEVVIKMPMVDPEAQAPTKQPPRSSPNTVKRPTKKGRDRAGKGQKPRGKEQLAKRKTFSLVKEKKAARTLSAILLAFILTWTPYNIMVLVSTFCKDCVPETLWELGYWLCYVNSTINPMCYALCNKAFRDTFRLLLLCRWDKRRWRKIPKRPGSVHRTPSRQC
As to the kind of experiment: human M1 muscarinic receptor antagonist activity. It is filed as cell-based. The note with it: 3 μM.

Data set [2] concerns the target T2, striatal-enriched protein tyrosine phosphatase (STEP) (Homo sapiens, UniProt P54829).
T2 sequence (P54829 1-565): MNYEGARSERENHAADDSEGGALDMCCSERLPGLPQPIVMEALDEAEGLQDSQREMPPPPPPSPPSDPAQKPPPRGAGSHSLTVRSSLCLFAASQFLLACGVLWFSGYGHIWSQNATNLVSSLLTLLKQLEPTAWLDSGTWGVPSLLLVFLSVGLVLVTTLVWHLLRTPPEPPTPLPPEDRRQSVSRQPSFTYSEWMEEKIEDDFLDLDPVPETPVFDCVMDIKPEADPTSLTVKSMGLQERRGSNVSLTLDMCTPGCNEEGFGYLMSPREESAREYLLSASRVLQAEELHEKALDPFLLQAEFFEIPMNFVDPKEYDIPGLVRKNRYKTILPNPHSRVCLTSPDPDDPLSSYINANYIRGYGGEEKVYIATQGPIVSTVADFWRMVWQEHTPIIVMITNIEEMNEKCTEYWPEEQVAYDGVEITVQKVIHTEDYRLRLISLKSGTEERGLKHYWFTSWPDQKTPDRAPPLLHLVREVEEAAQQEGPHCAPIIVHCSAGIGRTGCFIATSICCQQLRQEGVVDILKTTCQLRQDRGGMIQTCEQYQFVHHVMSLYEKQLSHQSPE
The data set is described as follows: striatal-enriched protein tyrosine phosphatase (STEP) inhibition. It is filed as biochemical. Conditions: read-out: Potency, striatal-enriched protein tyrosine phosphatase (STEP) inhibitor.

The target of a further data set is fatty acid synthase (Homo sapiens, UniProt P49327). As to the kind of experiment: fatty acid synthase inhibition. It is filed as biochemical. The note with it: read-out: Potency, fatty acid synthase inhibitor.
Sequence of fatty acid synthase (P49327 whole entry): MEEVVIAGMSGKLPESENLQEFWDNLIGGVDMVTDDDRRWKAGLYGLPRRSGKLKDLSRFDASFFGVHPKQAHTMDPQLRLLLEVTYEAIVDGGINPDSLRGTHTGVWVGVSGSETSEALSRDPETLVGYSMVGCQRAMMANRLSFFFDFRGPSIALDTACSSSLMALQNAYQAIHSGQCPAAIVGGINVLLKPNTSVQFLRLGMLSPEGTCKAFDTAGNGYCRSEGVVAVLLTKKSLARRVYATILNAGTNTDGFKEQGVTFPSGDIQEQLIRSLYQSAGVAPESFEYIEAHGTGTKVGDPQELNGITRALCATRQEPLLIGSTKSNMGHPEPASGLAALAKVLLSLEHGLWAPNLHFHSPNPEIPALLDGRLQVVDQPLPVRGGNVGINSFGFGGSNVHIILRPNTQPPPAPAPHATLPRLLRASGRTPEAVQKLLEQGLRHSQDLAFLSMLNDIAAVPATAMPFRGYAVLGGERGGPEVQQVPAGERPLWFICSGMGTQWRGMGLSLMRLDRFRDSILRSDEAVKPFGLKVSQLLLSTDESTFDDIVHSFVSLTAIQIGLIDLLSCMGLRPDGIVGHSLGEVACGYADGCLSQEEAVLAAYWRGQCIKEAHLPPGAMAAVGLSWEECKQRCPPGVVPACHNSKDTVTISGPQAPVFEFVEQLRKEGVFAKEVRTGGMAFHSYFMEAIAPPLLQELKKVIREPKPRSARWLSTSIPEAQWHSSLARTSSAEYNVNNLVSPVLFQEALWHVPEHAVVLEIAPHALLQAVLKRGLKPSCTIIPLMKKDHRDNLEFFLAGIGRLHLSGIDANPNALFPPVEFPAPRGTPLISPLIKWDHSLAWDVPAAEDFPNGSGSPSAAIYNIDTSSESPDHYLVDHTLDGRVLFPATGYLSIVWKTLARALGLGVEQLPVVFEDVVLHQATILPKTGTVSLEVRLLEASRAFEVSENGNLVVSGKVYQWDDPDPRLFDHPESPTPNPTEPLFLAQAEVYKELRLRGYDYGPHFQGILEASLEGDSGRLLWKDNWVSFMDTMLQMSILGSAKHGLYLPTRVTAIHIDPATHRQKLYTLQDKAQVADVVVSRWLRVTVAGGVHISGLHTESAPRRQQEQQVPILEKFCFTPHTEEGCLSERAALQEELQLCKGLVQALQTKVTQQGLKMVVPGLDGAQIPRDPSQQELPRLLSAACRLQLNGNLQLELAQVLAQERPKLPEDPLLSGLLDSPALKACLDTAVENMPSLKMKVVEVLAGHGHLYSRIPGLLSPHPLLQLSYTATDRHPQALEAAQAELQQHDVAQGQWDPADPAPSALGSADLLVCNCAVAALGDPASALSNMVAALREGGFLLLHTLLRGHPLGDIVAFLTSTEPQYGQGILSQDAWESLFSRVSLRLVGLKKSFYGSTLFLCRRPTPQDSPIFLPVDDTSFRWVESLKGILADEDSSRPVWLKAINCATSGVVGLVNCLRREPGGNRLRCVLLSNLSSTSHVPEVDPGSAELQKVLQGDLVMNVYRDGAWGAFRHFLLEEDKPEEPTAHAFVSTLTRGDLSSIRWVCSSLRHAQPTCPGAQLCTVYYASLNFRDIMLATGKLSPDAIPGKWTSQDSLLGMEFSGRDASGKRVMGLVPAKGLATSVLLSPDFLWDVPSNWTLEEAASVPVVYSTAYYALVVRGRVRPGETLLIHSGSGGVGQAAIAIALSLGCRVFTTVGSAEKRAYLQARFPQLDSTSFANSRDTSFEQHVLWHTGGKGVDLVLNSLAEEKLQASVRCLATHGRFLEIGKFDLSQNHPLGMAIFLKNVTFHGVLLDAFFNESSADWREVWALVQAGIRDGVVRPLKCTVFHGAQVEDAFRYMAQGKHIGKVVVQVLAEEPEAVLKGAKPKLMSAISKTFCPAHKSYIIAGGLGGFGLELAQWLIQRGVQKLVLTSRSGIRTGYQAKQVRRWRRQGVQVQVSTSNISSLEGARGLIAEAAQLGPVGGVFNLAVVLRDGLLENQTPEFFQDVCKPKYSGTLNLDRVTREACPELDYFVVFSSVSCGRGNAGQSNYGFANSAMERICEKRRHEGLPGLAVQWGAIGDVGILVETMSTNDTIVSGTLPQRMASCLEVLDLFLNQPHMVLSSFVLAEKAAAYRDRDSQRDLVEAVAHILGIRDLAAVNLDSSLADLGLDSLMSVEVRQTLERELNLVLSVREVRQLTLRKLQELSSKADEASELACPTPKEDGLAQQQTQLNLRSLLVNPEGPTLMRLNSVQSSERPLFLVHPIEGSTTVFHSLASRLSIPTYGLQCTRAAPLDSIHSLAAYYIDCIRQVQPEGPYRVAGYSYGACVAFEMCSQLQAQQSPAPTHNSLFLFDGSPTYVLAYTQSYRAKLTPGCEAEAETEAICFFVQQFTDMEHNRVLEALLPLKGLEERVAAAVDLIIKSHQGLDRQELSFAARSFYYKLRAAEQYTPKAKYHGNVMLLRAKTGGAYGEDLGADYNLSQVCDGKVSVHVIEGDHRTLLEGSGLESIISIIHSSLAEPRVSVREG
Data set [3] deals with Y. pestis topoisomerase I. It is filed as biochemical. The note with it: 10 μM.
The target of data set [4] is mycobacterium tuberculosis bioA enzyme (Mycobacterium tuberculosis, UniProt P9WQ81). As to the kind of experiment: mycobacterium tuberculosis bioA enzyme inhibition. It is filed as biochemical. Conditions: read-out: Potency, mycobacterium tuberculosis bioA enzyme inhibitor.
Sequence of mycobacterium tuberculosis bioA enzyme (P9WQ81 whole entry): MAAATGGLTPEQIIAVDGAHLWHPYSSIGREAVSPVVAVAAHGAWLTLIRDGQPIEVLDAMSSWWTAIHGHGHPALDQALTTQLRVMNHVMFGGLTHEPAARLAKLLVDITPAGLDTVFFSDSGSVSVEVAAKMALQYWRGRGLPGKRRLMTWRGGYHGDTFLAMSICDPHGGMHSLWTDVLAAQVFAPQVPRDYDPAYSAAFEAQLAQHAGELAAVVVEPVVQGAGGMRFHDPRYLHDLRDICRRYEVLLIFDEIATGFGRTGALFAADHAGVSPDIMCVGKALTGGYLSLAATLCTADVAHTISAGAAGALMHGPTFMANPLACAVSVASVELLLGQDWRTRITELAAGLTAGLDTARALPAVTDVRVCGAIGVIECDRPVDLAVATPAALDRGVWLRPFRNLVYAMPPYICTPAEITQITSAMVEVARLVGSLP
The target of data set [5] is T3, microphthalmia-associated transcription factor (MITF) (Homo sapiens, UniProt O75030).
T3 sequence (O75030 1-526): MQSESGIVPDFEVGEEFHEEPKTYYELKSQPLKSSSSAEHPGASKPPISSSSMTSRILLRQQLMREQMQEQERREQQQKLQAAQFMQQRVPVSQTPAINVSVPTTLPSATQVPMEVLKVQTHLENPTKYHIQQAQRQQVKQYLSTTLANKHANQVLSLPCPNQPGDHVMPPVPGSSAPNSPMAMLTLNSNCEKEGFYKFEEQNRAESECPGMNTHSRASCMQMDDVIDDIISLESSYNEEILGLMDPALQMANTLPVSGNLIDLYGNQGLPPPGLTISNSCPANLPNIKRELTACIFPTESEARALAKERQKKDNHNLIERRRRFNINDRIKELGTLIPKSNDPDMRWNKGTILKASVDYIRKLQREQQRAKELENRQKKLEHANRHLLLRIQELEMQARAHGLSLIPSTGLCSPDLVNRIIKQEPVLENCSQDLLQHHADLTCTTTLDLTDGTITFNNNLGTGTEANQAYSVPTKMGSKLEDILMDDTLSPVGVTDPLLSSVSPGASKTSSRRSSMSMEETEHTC
As to the kind of experiment: microphthalmia-associated transcription factor (MITF) activation. It is filed as cell-based. Conditions: read-out: Potency (AC40), microphthalmia-associated transcription factor (MITF) activator.

Data set [6] has as its target serotonin 5A receptor (5HTR5A) (Homo sapiens, UniProt P47898). As to the kind of experiment: serotonin 5A receptor (5HTR5A) inverse agonist activity. It is filed as cell-based. The note with it: 9.3 μM.
Data set [7] in a line: Pharmacokinetic profile of JJS-1-166 in mice (plasma, LC-MS). Conditions: for bioavailability: relative to the area under the curve for IV administration. It is filed as in vivo, C57Bl/6j mice. The method, then:
FIG. 1. Nine C57Bl/6j male mice (2-3 months old). Prior to PK evaluation, 3 animals were dosed with vehicle and were used to identify the standard curve using liquid chromatography-mass spectrometry (LC-MS) and as controls. Animals were randomized into 3 groups (n=3 per group). One group dosed Intravenously (IV), one group orally (PO), and one group subcutaneously (SC) with 10 mg/kg of the compound. […] (The first 4 collections are retro-orbital and the last one is terminal together with collection of the brain. Brain and blood will be flash frozen in liquid nitrogen and kept in −80° C. for later analysis. The concentration of compounds in the blood samples and brain tissues will be measured using LC-MS method.) We determined the blood brain barrier (BBB) permeability and pharmacokinetic (PK) profile of JJS-1-166 (phase I), and subsequently investigated the efficacy of JJS-1-166 in an Alzheimer's disease (AD) mouse model. LC-MS/MS Method Development for Compound JJS-1-166 [table] [table]

The nature of data set [8]: Blood brain barrier permeability / brain concentration and brain clearance of JJS-1-166 in mice. It is filed as in vivo, C57Bl/6j mice. The note with it: time point 24 h, individual animals.
Experiment in data set [9]: as above
It is filed as in vivo, C57Bl/6j mice. The note with it: for brain exposure / concentration at 3 h: mouse; for concentration at 3 h: male, C57Bl/6j, brain, 10 mg/kg. On the procedure:
FIG. 1. Nine C57Bl/6j male mice (2-3 months old). Prior to PK evaluation, 3 animals were dosed with vehicle and were used to identify the standard curve using liquid chromatography-mass spectrometry (LC-MS) and as controls. Animals were randomized into 3 groups (n=3 per group). One group dosed Intravenously (IV), one group orally (PO), and one group subcutaneously (SC) with 10 mg/kg of the compound. From each animal blood will be collected 5 times: baseline (before the single dose); 5 minute; 30 minute; 1 hour; 3 hour after the single dose of the compound. (The first 4 collections are retro-orbital and the last one is terminal together with collection of the brain. Brain and blood will be flash frozen in liquid nitrogen and kept in −80° C. for later analysis. The concentration of compounds in the blood samples and brain tissues will be measured using LC-MS method.) FIG. 6. 3 day brain clearance study. A C57Bl/6j mouse was treated with 10 mg/kg JJS-1-166. After 3 days, the level of JJS-1-166 in the brain was assessed to ensure that all or a majority of the drug had been cleared. We determined the blood brain barrier (BBB) permeability and pharmacokinetic (PK) profile of JJS-1-166 (phase I), and subsequently investigated the efficacy of JJS-1-166 in an Alzheimer's disease (AD) mouse model. LC-MS/MS Method Development for Compound JJS-1-166 [table] [table]

The mark [10] stands for this setting: time point 3 h, individual animals.
The mark [11] stands for this setting: time point 72 h, individual animals.

Values joined by “and” are separate entries in the source; they are usually repeats but may differ in a detail not shown here. Equal entries are not always repeated. Where two headings read alike, the source gives them in different places.

Sequence of serotonin 5A receptor (5HTR5A) (P47898 whole entry): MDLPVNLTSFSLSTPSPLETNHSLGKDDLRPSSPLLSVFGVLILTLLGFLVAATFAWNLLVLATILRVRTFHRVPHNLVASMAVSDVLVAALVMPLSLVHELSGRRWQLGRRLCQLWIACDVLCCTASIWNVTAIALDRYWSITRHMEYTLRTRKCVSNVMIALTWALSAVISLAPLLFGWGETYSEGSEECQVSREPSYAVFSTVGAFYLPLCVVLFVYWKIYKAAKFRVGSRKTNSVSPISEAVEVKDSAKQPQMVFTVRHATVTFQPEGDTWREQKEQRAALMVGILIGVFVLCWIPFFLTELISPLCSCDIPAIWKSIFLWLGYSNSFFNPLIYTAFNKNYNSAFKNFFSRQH

In the case of `O=C(c1cc(Cl)cc(Cl)c1)N1CC[C@@H]2C[C@H]1c1cc(N3CCCCC3)ccc12`, the “Potency, human M1 muscarinic receptor antagonist” value in [1] is listed as 69% (3 μM).

For the molecule `N#Cc1ccc(C(=O)N2CC[C@@H]3C[C@H]2c2cc(-c4ccccc4)ccc23)cc1`, the inhibition at 20 µM in data set [2] is 69%.

As to `COc1ccc(NC(=S)N2CCN(c3ccc4c(c3)[C@@H]3CCN(C(=O)OCc5ccccc5)[C@H]4C3)CC2)c(OC)c1`, the inhibition at 15 µM at fatty acid synthase was 57%.

With `O=C(OCc1ccccc1)N1CC[C@@H]2C[C@H]1c1c(Cl)cccc12`, the “Potency, Y. pestis topoisomerase I inhibitor” value in [3] is 61% (10 μM).

On to `COc1ccc(-c2ccc3c(c2)[C@@H]2C[C@H]3CCN2)cc1`, for which the inhibition at 10 µM in data set [4] worked out at 91%.

Consider `CCCCNc1ccc2c(c1)[C@@H]1C[C@H]2CCN1C(=O)OCc1ccccc1`, for which the EC40 in data set [5] was determined as 3.3 µM.

For the molecule `Clc1cccc(CN2CC[C@@H]3C[C@H]2c2cc(N4CCCCC4)ccc23)c1`, in data set [6], the “Potency, serotonin 5A receptor (5HTR5A) inverse agonist” value is listed as 27% (9.3 μM).

With `FC(F)(F)c1ccc(-c2ccc3c(c2)[C@@H]2C[C@H]3CCN2Cc2ccccc2)cc1` (stereo in doubt) [21{2,7}, 2-Benzyl-8-(4-(trifluoromethyl)phenyl)-2,3,4,5-tetrahydro-1H-1,5-methanobenzo[c]azepine], the melting point is 101 to 103 °C.

As to `COc1ccc(S(=O)(=O)N2CC[C@@H]3C[C@H]2c2cc(N4CCOCC4)ccc23)cc1` (stereo in doubt) [30{2,2,30}, 4-(2-((4-Methoxyphenyl)sulfonyl)-2,3,4,5-tetrahydro-1H-1,5-methanobenzo[c]azepin-8-yl)morpholine], the melting point is 176 to 177 °C.

Consider `CN1CCN(c2ccc3c(c2)[C@H]2CC3CCN2C(=O)OCc2ccccc2)CC1` [JJS-1-166], for which the concentration at 24 h in data set [7] (C57Bl/6j, mouse, plasma, time point 24 h, individual animals, read-out: Drug concentration in the Plasma) was 0.14 ng/g; in [8] (C57Bl/6j, mouse, brain, 10 mg/kg, read-out: Drug concentration in the Brain), 1.76 ng/g. The “plasma concentration (Cmax)” value is on record as “greater than 300 ng/dL” in data set [7] (SC administration, 10 mg/kg, at 1 hour, mouse); “greater than 1500 ng/dL” in [7] (intravenous (IV) administration, 10 mg/kg, at 5 minutes, mouse); “greater than 60 ng/dL” in data set [7] (oral (PO) administration, 10 mg/kg, at 30 min, mouse). For the same molecule, the “time for which detectable plasma levels were maintained” value in data set [7] (after SC, OP, and IV administration, mouse) is on record as “greater than 150 minutes”. The concentration at 3 h amounted to 156 ng/g in data set [7] (male, C57Bl/6j, mouse, plasma, 10 mg/kg, time point 3 h, individual animals, read-out: Drug concentration in the Plasma); 1570 ng/g in [9] (time point 3 h, individual animals, read-out: Drug concentration in the Brain); 15 ng/mL in [9] (sc, 3 hours after subcutaneous (SC) administration, read-out: brain concentration). Moreover, the bioavailability in [7] (male, C57Bl/6j, plasma, oral, 10 mg/kg, mouse, read-out: OP bioavailability) amounted to 7%; in data set [7] (male, C57Bl/6j, plasma, subcutaneous, 10 mg/kg, mouse, read-out: SC bioavailability) it was 45%. The pharmacokinetic properties result in data set [7] (mouse, overall statement) was “acceptable”. Besides, the “Drug concentration in the Plasma” value in data set [7] (setting [10]) was 136.0 ng/g and 209.0 ng/g; in data set [7] (time point 24 h, individual animals) it was 0.163 ng/g and 0.0913 ng/g; in data set [7] (setting [11]), “No Peak”. Besides, the “Drug concentration in the Brain” value in data set [8] is 1.63 ng/g and 1.28 ng/g; in [9] (setting [10]), 1100.0 ng/g and 1840.0 ng/g; in data set [9] (setting [11]), “No Peak”. For the same molecule, the brain exposure result is listed as “high level of brain exposure” in data set [9] (SC administration, 3 hours) and “adequate brain exposure” in data set [9] (overall statement).

(Values after patent publication US10450275B2, “Compounds and methods for treating cancer, neurological disorders, ethanol withdrawal, anxiety, depression, and neuropathic pain” (Board of Regents, The University of Texas System, priority 2013, dated 2019).)
